Laboratory results published in US10406385B2 (Northwestern University, priority 2014, dated 2019).

How the values were obtained:
[1] = no adverse reactions in any species even at large doses; cited from earlier work
injured skin = settings: topical application at concentrations of 2-5%; cited from earlier work
[2] = system: Human umbilical vein endothelial cells (HUVEC); assay: Effect of panthenol citrate oligomers on cell viability, HUVEC; type: cell-based; settings: higher concentrations (1 mg/ml), 24 hours
Experimental: Human umbilical vein endothelial cells (HUVEC) (Lonza, Walkersville, Md.), adult human epidermal keratinocytes (HEKa) (Gibco, Carlsbad, Calif.), and human dermal fibroblast (HDF) (Lonza, Walkersville, Md.) were cultured in SmGM-2, Keratinocyte-SFM and DMEM, respectively, in a humidified incubator equilibrated with 5% CO2 at 37° C. Cells were seeded at a density of 1×10^4 cells/ml in 96-well tissue culture plates.

Row | SMILES | toxicities [1] | regeneration of injured skin (injured skin) | HUVEC cell survival [2]
1 | CC(C)(CO)C(O)C(=O)NCCCO (racemic) [panthenol, DL-panthenol] | negligible | stimulate the regeneration of injured skin | –
2 | O=C(O)CC(O)(CC(=O)O)C(=O)O [citric acid, Citric acid] | – | – | died within 24 hours
